Experimental data as given in patent US20250263370A1 (Tay Therapeutics Limited, priority 2022, published 2025).
≈ marks a conversion by molar mass, not a printed value.

Assays:
BRD4 BD2 = BRD4 BD2 (Homo sapiens (Human), UniProt O60885); assay: NanoBRET bromodomain assay, NanoLuc-BRD4-BD2 fusion in HEK293 cells; conditions: for IC50: BRD4 BD2 (IC50), NanoBRET, HEK293 cells, top concentration 10 μM; for Fold selectivity: IC50 for BRD4 BD1 divided by IC50 for BRD4 BD2, qualitative if an IC50 is at the upper limit;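 for all read-outs here: tracer displacement BRET read in transfected cells after 2 h compound exposure at 37 °C, signal in milliBRET units corrected against no-tracer background wells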
BRD4 BD1 = BRD4 BD1 (Homo sapiens (Human), UniProt O60885); assay: NanoBRET bromodomain assay, NanoLuc-BRD4-BD1 fusion in HEK293 cells; type: cell-based; conditions: top concentration 10 μM
[1] = Intrinsic clearance in liver microsomes, rat; type: in vitro ADME; conditions: rat, liver microsomes, pH 7.4, rat liver microsomes, Method 1; read-out: Half-Life (T1/2) (min), Rat
How it was run: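 Compound at 1 μM (0.1–1% DMSO) incubated at 37 °C with mouse or rat liver microsomes (0.5 mg/mL protein) and 1 mM NADPH in PBS pH 7.4; samples taken up to 60 min and quenched in cold acetonitrile. LC-MS/MS of percent remaining gave half-life and CLint; no-NADPH controls run.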

[2] = Plasma stability assay, rat plasma; type: in vitro ADME
Method: (§1) From stock solution of compound in 10 mM DMSO, a working solution of 1 mM is prepared by diluting the compound in DMSO. To 398 μL of plasma pre-warmed at 37° C. for 15 minutes), 2 μL of working solution of compound is added, resulting in a final concentration of 5 μM (0.5% DMSO) for the compound. The sample is then incubated at 37° C. Aliquot is withdrawn at specified time-points (0, 15, 30, 60 and 120 mins). The reaction is stopped by addition of 450 μL cold acetonitrile containing internal standard (IS). […] Aliquots of the supernatant is analysed using LC-MS/MS. The percent remaining of the compound at each time point is calculated with respect to the control sample (0 min time-point).
(§2) A working solution of compound (500 μM) is prepared in DMSO (100%). To 735 μL of plasma, 15 μL of working solution of compound is added—resulting in a final concentration of 10 μM (2% DMSO) for the compound. The sample is then incubated at 37° C. Aliquot is withdrawn at time-points—0, 15, 30, 60, 90 and 120 mins. The reaction is stopped by using chilled acetonitrile containing internal standard (IS). The samples are centrifuged and the supernatants analyzed using LC-MS/MS. The percent remaining of the compound at each time point is calculated with respect to the control sample (0 min time-point).

[3] = Thermodynamic solubility in FaSSIF pH 6.5 buffer; type: physicochemical; conditions: FaSSIF buffer, 25 °C, pH 6.5, fassif, thermodynamic from solid; for solubility thermodynamic: Method 2 (LCMS, 25° C.)
Method: FaSSIF v2 buffer is freshly prepared prior to use according to the suppliers' instructions and the pH adjusted to 6.5 using 1 M NaOH or 1 M HCl as required. From 1 mM working solution of test compound in DMSO, the λmax of the test compound is determined by scanning from 200 nm to 700 nm, in 1 nm steps with an EPOCH UV/Visible spectrophotometer (Biotek Instruments Inc.). A 12-point standard curve of compound concentration versus absorption at λmax is generated via two-fold serial dilutions of the 1 mM working solution with DMSO. Approximately 1 mg of test compound is accurately weighed into an Eppendorf tube and the appropriate volume of FaSSIF buffer is added to make a nominal concentration of 1 mg/mL. The tube is incubated on a rotator at 20 rpm, 25° C. for 24 hrs. Samples are then filtered using 0.45 μm filters (Sartorious, CAT #1776C) and the filtrate subjected to UV-vis spectroscopy analysis. The absorption at λmax is compared to the standard curve to determine the concentration of compound in solution after 24 hours.
FaSSIF buffer was prepared according to the suppliers' instructions and the pH adjusted to 6.5 using 1 M NaOH or 1 M HCl as required. […] A stir stick was added to each vial and vials sealed with a moulded PTDE/SIL 96-well plate cover. The plate was shaken at 25° C. at 1,100 rpm using an Eppendorf Thermomixer Comfort plate shaker. The plates were filtered using a vacuum manifold and diluted with a mixture of H2O and acetonitrile containing internal standard. The concentration of the test compound in the filtrate was determined by LCMS analysis with reference to the internal standards to determine the solubility in the buffer.

[4] = Sprague-Dawley rat pharmacokinetics, IV and PO cassette dosing; type: in vivo; conditions: for PO F: PO 5 mg/kg; for half-life: male, Sprague-Dawley, rat, plasma, iv, 1 mg/kg, Method 1, read-out: IV T1/2 (converted)
How it was run: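 Male Sprague-Dawley rats (2 per arm) given up to 5 compounds in cassette, 1 mg/kg IV and 5 mg/kg PO, formulated in 5% DMSO/40% PEG-400/55% water. Plasma from serial blood samples was acetonitrile-precipitated and analysed by LC/MS/MS against matrix-matched standard curves.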

[5] = Plasma stability assay, human plasma; type: in vitro ADME; conditions: Method 1 (5 μM)
Method: as §1, §2

[6] = Intrinsic clearance in liver microsomes, mouse; type: in vitro ADME; conditions: pH 7.4, Method 1, read-out: Half-Life (T1/2) (min), Mouse
Method: From stock solution of compound on 10 mM DMSO, a working solution of 0.1 mM is prepared by diluting the compound in DMSO. 6.25 μL of a 20 mg/mL solution of microsomes in PBS pH 7.4 buffer is added to 216.25 μL PBS pH 7.4 buffer (final microsome concentration—0.5 mg/mL). 25 μL of 10 mM solution of NADPH in PBS pH 7.4 buffer is added to the incubations (final NADPH concentration—1 mM). The mixture is pre-warmed to 37° C. for 10 minutes. 2.5 μL of test compound working solution is added (final compound concentration—1 μM with 1% DMSO). Aliquots of 30 μL are taken from the reaction solution at 0.5, 5, 15, 30 and 60 minutes. The reaction was stopped by the addition of 5 volumes of cold acetonitrile with IS (100 nM alprazolam, 200 nM caffeine and 100 nM tolbutamide). Samples were centrifuged at 3, 220 g for 40 minutes. Aliquots of 100 μL of the supernatant are mixed with 100 μL of ultra-pure H2O and used for LC-MS/MS analysis. The percent compound remaining at each time point is calculated with respect to that of the 0.5 min sample. The data are analysed to calculate half-life. Control experiments are run without NADPH and blank samples are prepared using DMSO without the test compound.
A 50 mM stock solution (in DMSO) is prepared for the compound. From the stock solution, a working solution of 0.5 mM is prepared by diluting the compound in DMSO. This concentration of working solution is prepared considering a final concentration of 1 uM with 0.1% DMSO. The compound (1 μL of working solution) is spiked in PBS with pH 7.4 ([…]) at a concentration of 1 μM. Subsequently, 110 μL of 10 mM NADPH is added (as a co-factor). The sample is incubated at 37° C. for 15 min. Following this, pre-warmed liver microsomes (27.5 μL; final protein conc. 0.5 mg/mL) are added. The samples are then incubated at 37° C. Aliquots of samples are withdrawn at 0, 5, 15, 30, 45 and 60 min. The reaction is stopped by using chilled acetonitrile containing internal standard. The samples are centrifuged, and the supernatants analysed by LC-MS/MS. The percent compound remaining at each time point is calculated with respect to that of the 0 min sample. The data are then analysed to calculate half-life and intrinsic clearance (CLint). Control experiments are run without NADPH and blank samples are prepared using DMSO without the test compound.

[7] = Plasma stability assay, mouse plasma; type: in vitro ADME; conditions: Method 1 (5 μM)
Method: as §1, §2

Compound | IC50 (BRD4 BD2) [nM] | Fold selectivity (BRD4 BD2) | IC50 (BRD4 BD1) [nM] | half-life at 1 μM [1] [min] | Plasma Stability (% remaining at 120 minutes), Rat ([2]; Method 2 (10 μM)) [%] | solubility thermodynamic [3] [µM] | PO F ([4]; Method 1) [%] | half-life ([4]; IV 1 mg/kg) [h] | Plasma Stability (% remaining at 120 minutes), Human [5] [%] | Plasma Stability (% remaining at 120 minutes), Rat ([2]; Method 1 (5 μM)) [%] | half-life at 1 μM [6] [min] | Plasma Stability (% remaining at 120 minutes), Mouse [7] [%] | solubility thermodynamic at 24 h ([3]; Method 1 (UV-vis, 25° C., 24 hrs)) [µM] | IV T1/2 ([4]; IV 1 mg/kg, Method 1) [h]
C#Cc1ccc(C(C)Oc2cc(C(=O)NCC)[nH]c2C(=O)NC)cc1 (single isomer, unassigned) [Example 70, N^5-ethyl-3-(1-(4-ethynylphenyl)ethoxy)-N^2-methyl-1H-pyrrole-2,5-dicarboxamide] | < 50 | XXX (Fold >200) | ≥ 10000 | 60 | 92 | 365 (≈ 124 µg/mL) | 44 | 0.6 | – | – | – | – | – | –
CNC(=O)c1[nH]c(C(=O)N[C@H]2CC[C@H](O)CC2)cc1OC(C)c1ccccc1 (single isomer, unassigned) [Example 97, N^5-(trans-4-hydroxycyclohexyl)-N^2-methyl-3-(1-phenylethoxy)-1H-pyrrole-2,5-dicarboxamide] | 50 to 200 | XX (Fold >50 and ≤200) | ≥ 10000 | > 60 | – | – | 60 | 1.4 | >99 | >99 | 70 | 93 | 418 (≈ 161 µg/mL) | –
CNC(=O)c1[nH]c(C(=O)NC2CC2)cc1O[C@@H](C)c1ccccc1F [Example 59, (S)—N^5-cyclopropyl-3-(1-(2-fluorophenyl)ethoxy)-N^2-methyl-1H-pyrrole-2,5-dicarboxamide] | 50 to 200 | XX (Fold >50 and ≤200) | ≥ 10000 | > 60 | 50 | 635 (≈ 219 µg/mL) | 70 | – | – | – | – | – | – | 1.1

More lines, now with the values ahead:

IC50 (BRD4 BD2) [nM] | Fold selectivity (BRD4 BD2) | IC50 (BRD4 BD1) [nM] | half-life at 1 μM [1] [min] | Plasma Stability (% remaining at 120 minutes), Rat ([2]; Method 2 (10 μM)) [%] | solubility thermodynamic [3] [µM] | PO F ([4]; Method 1) [%] | half-life ([4]; IV 1 mg/kg) [h] | Plasma Stability (% remaining at 120 minutes), Human [5] [%] | Plasma Stability (% remaining at 120 minutes), Rat ([2]; Method 1 (5 μM)) [%] | half-life at 1 μM [6] [min] | Plasma Stability (% remaining at 120 minutes), Mouse [7] [%] | solubility thermodynamic at 24 h ([3]; Method 1 (UV-vis, 25° C., 24 hrs)) [µM] | IV T1/2 ([4]; IV 1 mg/kg, Method 1) [h] | Compound
50 to 200 | XX (Fold >50 and ≤200) | ≥ 10000 | > 60 | 85 | 685 (≈ 258 µg/mL) | – | – | – | – | – | – | – | – | CNC(=O)c1[nH]c(C(=O)NC2CCC2)cc1OC(C)c1ccc(Cl)cn1 (single isomer, unassigned) [Example 33, 3-(1-(5-chloropyridin-2-yl)ethoxy)-N^5-cyclobutyl-N^2-methyl-1H-pyrrole-2,5-dicarboxamide]
< 50 | XXX (Fold >200) | ≥ 10000 | > 60 | 82 | 320 (≈ 116 µg/mL) | 8 | 0.5 | – | – | – | – | – | – | CNC(=O)c1[nH]c(C(=O)NC2CC2)cc1O[C@@H](C)c1ccc(Cl)cc1 [Example 62, (S)-3-(1-(4-chlorophenyl)ethoxy)-N^5-cyclopropyl-N^2-methyl-1H-pyrrole-2,5-dicarboxamide]
